The target of this assay is Neuropilin-1 (Homo sapiens) (UniProt O14786). As to the kind of experiment: blockers of CendR peptide binding to NRP-1 – biochemical, FP and AlphaScreen panel, dose response (AID 651650). Particulars: NRP-1 b1b2 / RPARPAR peptide binding, FP or AlphaScreen.
[1] abbreviates: AlphaScreen, run 1, individual panel run IC50.
[2] abbreviates: FP, run 1, individual panel run IC50.
Where [3] appears, read: FP, run 2, individual panel run IC50.

Active and inactive are the calls of the source.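 Rule for the calls: active = mean IC50 below 20 µM in each of the two panels, so potent in both; inactive = the rest.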

Chain of Neuropilin-1 (Homo sapiens) (O14786 whole entry, looked up): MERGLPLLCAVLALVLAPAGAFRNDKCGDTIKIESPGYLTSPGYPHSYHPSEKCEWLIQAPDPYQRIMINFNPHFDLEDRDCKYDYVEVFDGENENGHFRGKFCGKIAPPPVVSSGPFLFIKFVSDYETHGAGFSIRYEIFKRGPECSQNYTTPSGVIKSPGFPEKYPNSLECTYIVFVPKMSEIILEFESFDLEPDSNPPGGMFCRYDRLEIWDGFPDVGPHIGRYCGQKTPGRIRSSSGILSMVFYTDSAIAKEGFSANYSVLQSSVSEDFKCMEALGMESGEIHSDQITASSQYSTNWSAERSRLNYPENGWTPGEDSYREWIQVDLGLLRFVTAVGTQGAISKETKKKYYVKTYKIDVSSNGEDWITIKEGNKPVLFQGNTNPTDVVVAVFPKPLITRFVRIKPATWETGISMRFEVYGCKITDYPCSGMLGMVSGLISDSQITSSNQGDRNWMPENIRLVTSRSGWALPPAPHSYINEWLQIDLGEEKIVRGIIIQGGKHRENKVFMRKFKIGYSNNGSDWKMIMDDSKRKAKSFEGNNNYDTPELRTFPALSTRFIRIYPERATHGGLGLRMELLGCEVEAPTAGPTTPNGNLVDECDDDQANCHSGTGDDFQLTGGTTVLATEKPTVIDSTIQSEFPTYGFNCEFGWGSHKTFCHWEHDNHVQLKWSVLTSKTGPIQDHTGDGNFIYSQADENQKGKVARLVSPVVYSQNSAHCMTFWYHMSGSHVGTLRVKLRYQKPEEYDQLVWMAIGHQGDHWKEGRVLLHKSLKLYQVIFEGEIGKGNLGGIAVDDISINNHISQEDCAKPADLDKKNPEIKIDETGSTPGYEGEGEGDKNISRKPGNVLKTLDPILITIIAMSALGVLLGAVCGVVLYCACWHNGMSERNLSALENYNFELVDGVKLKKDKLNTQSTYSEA

In general, IC50 refers to the concentration needed to halve the response being measured. Take `O=C(CCC(=O)Nc1ccccc1Cl)NN=C1CCCC1`: where the note is “AlphaScreen, mean of runs”, the IC50 entry was “inactive”. Further, the IC50 reads like this: under setting [1], 43.4 µM; (FP, mean of runs) > 95 µM (inactive); under setting [2], > 95 µM; under setting [3], > 95 µM.
For `O=C(/C=C/c1ccco1)N/C(=C\c1ccccc1)C(=O)NCCc1nc2ccccc2[nH]1`, the IC50 is > 100 µM (inactive) (AlphaScreen, mean of runs); > 100 µM under setting [1]; > 95 µM (inactive) (FP, mean of runs); > 95 µM under setting [2]; > 95 µM under setting [3].
Regarding `c1ccc(OCCCN2CCCC2)cc1`, the IC50 reads like this: (AlphaScreen, mean of runs) > 100 µM (inactive); under setting [1], > 100 µM; (FP, mean of runs) > 95 µM (inactive); under setting [2], > 95 µM; under setting [3], > 95 µM.
As for `CC#CCN(Cc1ccco1)C(=O)C1CCC(=O)N(Cc2ccccc2F)C1` (stereo not given), the IC50 by setting is: (AlphaScreen, mean of runs) > 100 µM (inactive); under setting [1], > 100 µM; (FP, mean of runs) > 95 µM (inactive); under setting [2], > 95 µM; under setting [3], > 95 µM.
Consider `O=C(Nc1ccc(F)cc1)c1cc(S(=O)(=O)Nc2ccc(F)cc2)cs1`, for which the IC50 was > 100 µM (inactive) (AlphaScreen, mean of runs); > 100 µM under setting [1]; > 95 µM (inactive) (FP, mean of runs); > 95 µM under setting [2]; > 95 µM under setting [3].
Take `COCCNC(=O)c1cc(-c2ccccc2)nn1CC1CC(c2cccc([N+](=O)[O-])c2)=NO1` (stereo not given): the IC50 was > 100 µM (inactive) (AlphaScreen, mean of runs); > 100 µM under setting [1]; > 95 µM (inactive) (FP, mean of runs); > 95 µM under setting [2]; > 95 µM under setting [3].
For the molecule `O=C(NCCN1CCOCC1)c1cc(-c2ccc(F)cc2)on1`, the IC50 runs as follows: (AlphaScreen, mean of runs) > 100 µM (inactive); under setting [1], > 100 µM; (FP, mean of runs) > 95 µM (inactive); under setting [2], > 95 µM; under setting [3], > 95 µM.
For `O=[N+]([O-])c1cc(-c2csc(NCCc3nc4cc(C(F)(F)F)ccc4n3CCCO)n2)ccc1Cl`, the IC50 reads like this: (AlphaScreen, mean of runs) > 100 µM (inactive); under setting [1], > 100 µM; (FP, mean of runs) > 95 µM (inactive); under setting [2], > 95 µM; under setting [3], > 95 µM.
Turning to `Cc1ccc(C(=O)N/C(=C\c2sccc2C)C(=O)NCc2ccco2)cc1`, the IC50 entry (AlphaScreen, mean of runs) was “inactive”. The IC50 was 92 µM under setting [1]; > 95 µM (inactive) (FP, mean of runs); > 95 µM under setting [2]; > 95 µM under setting [3].
Take `CCn1c(SCC(=O)c2ccccc2)nnc1-c1cccs1`: the IC50 entry (AlphaScreen, mean of runs) was “inactive”. Also, the 50% inhibitory concentration (IC50) is 95.3 µM under setting [1]; > 95 µM (inactive) (FP, mean of runs); > 95 µM under setting [2]; > 95 µM under setting [3].
For `Cc1ccc2c(c1)C(c1ccncc1)=NNC(c1ccc(F)cc1)=N2`, the IC50 (AlphaScreen, mean of runs) was > 100 µM (inactive); the IC50 under setting [1] is > 100 µM; the IC50 (FP, mean of runs) is > 95 µM (inactive); the IC50 under setting [2] is > 95 µM; the IC50 under setting [3] is > 95 µM.
`NC(=O)C1=C[C@H](c2ccc(Br)cc2)C[C@H](OCc2ccc(CO)cc2)O1`: the IC50 by setting is: (AlphaScreen, mean of runs) > 100 µM (inactive); under setting [1], > 100 µM; (FP, mean of runs) > 95 µM (inactive); under setting [2], > 95 µM; under setting [3], > 95 µM.
As for `CCN(CC)C(=O)c1cccc(-c2csc(C(NC(C)=O)c3cccc(OC)c3)n2)c1` (stereo not given), the IC50 by setting is: (AlphaScreen, mean of runs) > 100 µM (inactive); under setting [1], > 100 µM; (FP, mean of runs) > 95 µM (inactive); under setting [2], > 95 µM; under setting [3], > 95 µM.
For `CC(C)COC(=O)C1C2C=CC3(CN(C(C)c4ccc(Br)cc4)C(=O)C13)O2` (stereo not given), the IC50 was > 100 µM (inactive) (AlphaScreen, mean of runs); > 100 µM under setting [1]; > 95 µM (inactive) (FP, mean of runs); > 95 µM under setting [2]; > 95 µM under setting [3].
Take `Cc1ccc(C(=O)O)cc1NC(=O)Nc1cccc2ccccc12`: the IC50 was > 100 µM (inactive) (AlphaScreen, mean of runs); > 100 µM under setting [1]; > 95 µM (inactive) (FP, mean of runs); > 95 µM under setting [2]; > 95 µM under setting [3].
`CC(Nc1ccc2ccccc2c1)C(=O)N/N=C/c1ccncc1` (stereo not given): the IC50 by setting is: (AlphaScreen, mean of runs) > 100 µM (inactive); under setting [1], > 100 µM; (FP, mean of runs) > 95 µM (inactive); under setting [2], > 95 µM; under setting [3], > 95 µM.
Turning to `O=S(=O)(c1cc(Cl)cc(Cl)c1)N1Cc2cc(-c3ccccc3)ccc2-n2nncc2C1`, the IC50 runs as follows: (AlphaScreen, mean of runs) > 100 µM (inactive); under setting [1], > 100 µM; (FP, mean of runs) > 95 µM (inactive); under setting [2], > 95 µM; under setting [3], > 95 µM.
`Fc1cnc(N2CCOCC2)nc1N1CCOCC1`: the IC50 is > 100 µM (inactive) (AlphaScreen, mean of runs); > 100 µM under setting [1]; > 95 µM (inactive) (FP, mean of runs); > 95 µM under setting [2]; > 95 µM under setting [3].
Regarding `NC(=O)CC[C@H](NC(=O)c1ccc(F)cc1)C(=O)N1CCN(Cc2ccc3c(c2)OCO3)CC1`, the IC50 is, setting by setting: (AlphaScreen, mean of runs) > 100 µM (inactive); under setting [1], > 100 µM; (FP, mean of runs) > 95 µM (inactive); under setting [2], > 95 µM; under setting [3], > 95 µM.
Regarding `Fc1cc(Cl)ccc1Nc1nc(NCc2ccccc2)nc2ccsc12`, the IC50 was > 100 µM (inactive) (AlphaScreen, mean of runs); > 100 µM under setting [1]; > 95 µM (inactive) (FP, mean of runs); > 95 µM under setting [2]; > 95 µM under setting [3].
Regarding `COC(=O)c1c(NC(=O)CN(c2ccccc2)S(C)(=O)=O)sc2c1CCCC2`, the IC50 reads like this: (AlphaScreen, mean of runs) 15.5 µM; under setting [1], 15.5 µM; (FP, mean of runs) > 95 µM (inactive); under setting [2], > 95 µM; under setting [3], > 95 µM.
With `CCC1=C(OC(=O)N(CC)CC)N2C(=O)OC(=NCC(=O)OC)[C@]2(Cc2ccccc2)[C@H]2C1=CC[C@H]1C(=O)N(CC(=O)OC)C(=O)[C@H]12`, under “AlphaScreen, mean of runs”, the IC50 entry was “inactive”. The IC50 runs as follows: under setting [1], 64.8 µM; (FP, mean of runs) > 95 µM (inactive); under setting [2], > 95 µM; under setting [3], > 95 µM.
As to `Cc1ccc(NC(=S)N2CCN(Cc3ccccc3)CC2)cc1`, the IC50 was > 100 µM (inactive) (AlphaScreen, mean of runs); > 100 µM under setting [1]; > 95 µM (inactive) (FP, mean of runs); > 95 µM under setting [2]; > 95 µM under setting [3].
In the case of `CCC1=C(OC(=O)N(CC)CC)N2C(=O)OC(=NCC3CC3)[C@]2(Cc2ccccc2)[C@H]2C1=CC[C@H]1C(=O)N(C)C(=O)[C@H]12`, the IC50 (AlphaScreen, mean of runs) was > 100 µM (inactive); the IC50 under setting [1] is > 100 µM; the IC50 (FP, mean of runs) was > 95 µM (inactive); the IC50 under setting [2] is > 95 µM; the IC50 under setting [3] is > 95 µM.
On to `Cc1ccc(Cl)cc1N1CCN(C(=O)c2cccc3c(=O)c(C)c(-c4ccccc4)oc23)CC1`, for which the IC50 is > 100 µM (inactive) (AlphaScreen, mean of runs); > 100 µM under setting [1]; 26.6 µM under setting [2]; > 95 µM under setting [3]. The IC50 entry (FP, mean of runs) was “inactive”.

Source of the values: PubChem BioAssay AID651650 (Sanford-Burnham Center for Chemical Genomics, 2012).
